Laboratory results reported in patent US20040087653A1, “Methods for the treatment of respiratory diseases and conditions with a selective iNOS inhibitor and a PDE inhibitor and compositions therefor” (priority 2002, published 2004).
Structures can show the parent of a compound that is named as a salt. Where two headings read alike, the source gives them in different places.

What was measured:
[1] = system: nitrite production in human cartilage explants; experiment: Human cartilage explant assay (IL-1 induced nitrite production); format: cell-based; details: inhibition of nitrite production, IL-1 stimulated explants
Procedure: Bone pieces are rinsed twice with Dulbecco's Phosphate Buffered Saline (GibcoBRL) and once with Dulbecco's Modified Eagles Medium (GibcoBRL) and placed into a petri dish with phenol red free Minimum Essential Medium (MEM) (GibcoBRL). Cartilage was cut into small explants of approximately 15-45 mg in weight and one or two explants per well are placed into either 96 or 48 well culture plates with 200-500 μL of culture media per well. The culture media was either a custom modification of Minimum Essential Medium(Eagle) with Earle's salts (GibcoBRL) prepared without L-Arginine, without L-Glutamine and without phenol red or a custom modification of serumless Neuman and Tytell (GibcoBRL) medium prepared without L-arginine, without insulin, without ascorbic acid, without L-glutamine and without phenol red. Both are supplemented before use with 100 μM L-Arginine (Sigma), 2 mM L-glutamine, 1× HL-1 supplement (BioWhittaker), […] ascorbic acid (Sigma) and 150 pg/ml recombinant human IL-1[…] (RD Systems) to induce nitric oxide synthase. Compounds are then added in 10 μL aliquots and the explants incubated at 37° C. with 5% CO2 for 18-24 hours. The day old supernatant is then discarded and replaced with fresh culture media containing recombinant human IL-1β and compound and incubated for another 20-24 hours. […] All samples are done in quadruplicate. Unstimulated controls are cultured in media in the absence of recombinant human IL-1 □. IC50 values (Table II) are determined from plotting the percent inhibition of nitrite production at six different concentrations of inhibitor.

i-NOS = i-NOS (Homo sapiens, UniProt P35228); experiment: i-NOS inhibition, comparison with NIL amides
i-NOS, sequence (P35228 whole entry): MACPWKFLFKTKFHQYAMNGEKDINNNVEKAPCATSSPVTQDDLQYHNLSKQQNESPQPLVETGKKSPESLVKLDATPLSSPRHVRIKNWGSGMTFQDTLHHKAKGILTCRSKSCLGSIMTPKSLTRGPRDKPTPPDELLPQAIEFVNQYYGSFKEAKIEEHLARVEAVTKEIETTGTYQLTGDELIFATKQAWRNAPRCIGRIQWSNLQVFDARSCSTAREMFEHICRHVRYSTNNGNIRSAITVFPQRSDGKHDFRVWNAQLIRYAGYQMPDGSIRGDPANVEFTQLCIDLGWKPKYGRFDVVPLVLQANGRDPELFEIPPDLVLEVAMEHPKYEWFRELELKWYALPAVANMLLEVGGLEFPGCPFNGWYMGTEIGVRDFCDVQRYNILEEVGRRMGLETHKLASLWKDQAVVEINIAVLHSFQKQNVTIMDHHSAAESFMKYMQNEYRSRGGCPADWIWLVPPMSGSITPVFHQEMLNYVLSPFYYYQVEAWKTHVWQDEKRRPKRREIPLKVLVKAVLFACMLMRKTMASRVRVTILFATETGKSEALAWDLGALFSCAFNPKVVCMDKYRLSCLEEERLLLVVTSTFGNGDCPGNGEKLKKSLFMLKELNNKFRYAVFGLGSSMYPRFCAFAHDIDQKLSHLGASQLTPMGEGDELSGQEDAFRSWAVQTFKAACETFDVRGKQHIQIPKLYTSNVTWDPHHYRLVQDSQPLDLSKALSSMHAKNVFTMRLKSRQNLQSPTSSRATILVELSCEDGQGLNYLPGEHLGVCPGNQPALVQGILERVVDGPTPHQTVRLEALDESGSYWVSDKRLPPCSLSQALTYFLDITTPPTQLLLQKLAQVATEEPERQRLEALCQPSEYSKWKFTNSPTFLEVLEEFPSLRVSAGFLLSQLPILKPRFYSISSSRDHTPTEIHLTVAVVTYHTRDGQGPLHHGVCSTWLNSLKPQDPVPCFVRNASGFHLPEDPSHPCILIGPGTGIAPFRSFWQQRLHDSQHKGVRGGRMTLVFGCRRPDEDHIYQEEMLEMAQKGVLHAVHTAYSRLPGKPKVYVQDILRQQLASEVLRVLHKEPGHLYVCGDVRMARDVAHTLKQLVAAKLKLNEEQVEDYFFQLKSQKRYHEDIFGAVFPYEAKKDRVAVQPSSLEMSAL

[2] = system: LPS-induced increase in plasma nitrite/nitrate levels; experiment: In vivo assay: plasma nitrite/nitrate in endotoxin-treated rats; details: oral administration, plasma nitrite/nitrate 5 hours post-treatment
Procedure: Plasma nitrite/nitrate levels can be determined 5 hours post-treatment.

exhaled NO = details: high doses; cited from earlier work
[3] = system: human primary airway epithelial cells; experiment: Nitrite in media of cytokine-stimulated human primary airway epithelial cells; format: cell-based; details: cells cultured 24 h with 50 ng/ml IL-1β, TNF-α and IFN-γ; read-out: IC50, inhibition of the increase in nitrite in the media
Procedure: Human primary airway epithelial cell cultures: Human primary airway epithelial cells were cultured as described previously (see Donnelly,L. E. and Barnes,P. J. Am J Respir Cell Mol.Biol 24:295-303 (2000)), and the amount of nitrite, the stable oxidation product of NO, in the cell culture media was measured using a modification of the spectrofluorometric method of Misko et al., Anal. Biochem. 4:11-16 (1993).
The protein was evenly distributed throughout the cytoplasm in basal cells but clearly located beneath the cilia in the columnar, ciliated cells. Treatment of airway epithelial cells with 50 ng/ml of IL-1β, TNF-α and IFN-γ (cytomix) for 24 h caused an induction of iNOS protein and an increase in the accumulation of nitrite in cell culture media from 2.20±0.2 μM in the absence of cytomix, to 3.5±0.4 μM in the presence of cytomix.
Media was harvested and measured for nitrite content (FIG. 1). Cellular proteins were resolved on 3-8% tris-acetate polyacrylamide gels and immunoblotted for iNOS protein (FIG. 2).

[4] = system: iNOS protein expression in human primary airway epithelial cells; experiment: Western blotting of iNOS from cultured epithelial cells; format: cell-based; details: cytokine-stimulated cells, various concentrations
Procedure: Western blotting of iNOS from cultured epithelial cells: Following incubation with the cytokine mixture alone or with various concentrations of L-NIL, epithelial cells were lysed in 50 mM Tris/HCl, pH 7.4, containing 0.25 mM ethylene diaminotetraacetic acid, 0.5 mM phenylmethylsulfonyl fluoride, 5 μg/ml antipain, 5 μg/ml leupeptin and 5 μg/ml benzaminidine. The protein concentration was determined using the BioRad protein assay kit according to the manufacturer's instructions. Cell proteins were solubilized in sodium dodecyl sulfate polyacrylamide gel electrophoresis sample buffer ([…] Tris/HCl, pH 6.8, containing 10% v/v glycerol, 1% w/v SDS, 1% w/v β-mercaptoethanol, and 0.01% w/v bromophenol blue). The proteins (15 μg per lane) were resolved by electrophoresis in 3-8% (w/v) Tris-acetate SDS-polyacrylamide gels and transferred to Hybond-Enhanced Chemi-luminescence (ECL) nitro-cellulose membranes. Equal protein loading was determined by staining the blot with 0.1% (w/v) Ponceau S in 5% (v/v) acetic acid. The nitro-cellulose was then blocked overnight at 4° C. in 0.5M Tris-HCl,pH 7.4, containing 3% (w/v) normal goat serum, 1% (w/v) bovine serum albumin and 0.05% (v/v) Tween-20. […]
Media was harvested and measured for nitrite content (FIG. 1). […]

PDE IV [5] = system: T1, PDE IV; details: Hatzelmann et al. 2001; cited from earlier work
T1 construct: other: Hatzelmann et al. 2001

PDE I = details: Hatzelmann et al. 2001; cited from earlier work
PDE V = PDE V (Homo sapiens, UniProt O76074); details: printed only as numerator of 8/0.0008; cited from earlier work
PDE IV [6] = experiment: PDE IV inhibition (Hatzelmann et al.)
Procedure: PDE inhibition is then determined by the presence or absence of substrate degradation products. […] The relative ability of an inhibitory compound to slow or prevent the degradation of tritiated cyclic nucleotides is one test that is indicative of how well the compound in question selects one or more of each isoform to inhibit.
In practice, the in vitro selectivity of a PDE IV inhibitor may vary depending upon the condition under which the test is performed and on the inhibitors being tested. However, for the purposes of this specification, the selectivity of a PDE IV inhibitor can be measured as a ratio of the in vitro IC50 value for inhibition of any other isoform of the phosphodiesterase enzyme (Z) other than PDE IV, divided by the IC50 value for inhibition of PDE IV (PDE Z IC50/PDE IV IC50), where Z identifies any PDE other than PDE IV.

[7] = Rattus norvegicus, read-out: ED50

Structure (SMILES)	IC50 ([1]; Homo sapiens) [nM]	ED50 [2, 7] [mg/kg]	other results
CC(=N)NCC(F)=CCC[C@H](N)C(=O)O (mixture of isomers) [Example B, (2S,5E/Z)-2-amino-6-fluoro-7-[(1-iminoethyl)amino]-5-heptenoic acid, dihydrochloride]	200	–	–
CC(=N)NCCCC[C@H](N)C(=O)Nc1nnn[nH]1 [Example 1, 2S-amino-6-[(1-iminoethyl)amino]-N-(1H-tetrazol-5-yl)hexanamide, hydrate, dihydrochloride]	–	–	selectivity compared with NIL amide or NIL dimethylamide (i-NOS): more selective
CC(=N)NC/C(F)=C\CC[C@H](N)C(=O)O [Example A, (2S,5E)-2-amino-6-fluoro-7-[(1-iminoethyl)amino]-5-heptenoic acid, dihydrochloride]	100	< 0.1	ED50 ([2]; dihydrochloride): <0.1 mg/kg
CC(=N)NC/C(F)=C/CC[C@H](N)C(=O)O [Example D, (2S,5Z)-2-amino-6-fluoro-7-[(1-iminoethyl)amino]-5-heptenoic acid, trihydrochloride, dihydrate]	2500	> 10	–
CC(=NO)NC/C(F)=C\CC[C@H](N)C(=O)O [Example G, (2S,5E)-2-amino-6-fluoro-7-[(1-hydroximinoethyl)amino]-5-heptenoic acid]	–	< 0.1	melting point: 198 to 200 °C
CC(=N)NC/C(F)=C\CC[C@H](N)C(=O)Nc1nnn[nH]1 [Example H, (2S,5E)-2-amino-6-fluoro-7-[(1-iminoethyl)amino]-N-(1H-tetrazol-5-yl) 5-heptenamide, dihydrochloride]	–	< 0.3	–
CC(=N)NC/C(F)=C\CC[C@](C)(N)C(=O)O.Cl.Cl [Example HH, (2S,5E)-2-amino-2-methyl-6-fluoro-7-[(1-iminoethyl)amino]-5-heptenoic acid, dihydrochloride]	400	0.4	–
COC[C@](N)(CSCCNC(C)=N)C(=O)O [Example J, 2-[[[2-[(1-Iminoethyl)amino]ethyl]thio]methyl]-O-methyl-D-serine, dihydrochloride]	–	–	IC50 [1]: 8200 nM
CC(=N)NC/C=C\CC[C@](C)(N)C(=O)O.Cl.Cl [Example LL, (2S,5Z)-2-amino-2-methyl-7-[(1-iminoethyl)amino]-5-heptenoic acid, dihydrochloride]	800	0.3	–
N=C1CCCC[C@H](CCCC[C@@H](N)C(=O)O)N1 [Example V, (α,2S)-.α-aminohexahydro-7-imino-1H-azepine-2-hexanoic acid, trihydrate hydrochloride]	< 10000	< 3	–
N=C1CCCC[C@@H](CCCC[C@H](N)C(=O)O)N1 [Example W, (αS,2R)-α-aminohexahydro-7-imino-1H-azepine-2-hexanoic acid, trihydrate hydrochloride]	> 30000	–	–
N=C1CCCC[C@H](CCCC[C@H](N)C(=O)O)N1 [Example X, (αS,2S)-α-aminohexahydro-7-imino-1H-azepine-2-hexanoic acid, trihydrate hydrochloride]	–	–	IC50 [1]: < 10000 nM
Cl.N=C1CCCC[C@H](CCCC[C@@H](N)C(=O)O)N1.O.O.O [Example Y, (αR,2S)-α-aminohexahydro-7-imino-1H-azepine-2-hexanoic acid, trihydrate hydrochloride]	–	< 3	–
N=C1CCCC[C@H](CCCC[C@H](N)C(=O)O)N1 [Example Z, (αS,2S)-α-aminohexahydro-7-imino-1H-azepine-2-hexanoic acid, trihydrate hydrochloride]	< 10000	–	–
COC(=O)[C@@H](N)CCCNC(=N)N[N+](=O)[O-] [L-NAME]	–	–	inhibition of exhaled NO (exhaled NO): approximately 70%
CC(=N)NCCCC[C@H](N)C(=O)O [L-NIL]	–	–	IC50 [3]: ~5700 nM; effect on iNOS expression as detected by immunoblotting [4]: did not affect iNOS expression
N=C(N)NN [amino-guanidine]	–	–	inhibition of exhaled NO (exhaled NO): approximately 70%
O=C(Nc1c(Cl)cncc1Cl)c1ccc(OC(F)F)c(OCC2CC2)c1 [roflumilast]	–	–	IC50 (PDE IV [5]): 0.8 nM; IC50 (PDE I): > 10000 nM; IC50 (PDE V): 8000 nM; selectivity for PDE IV as compared with PDE I (PDE IV [6]; PDE I IC50/PDE IV IC50): at least 12,500; selectivity for PDE IV as compared with PDE V (PDE IV [6]; PDE V IC50/PDE IV IC50): at least 10,000
